Test results reported in patent publication US20230330133A1, “METHODS FOR THE TREATMENT OF CHOLESTEROL CRYSTAL EMBOLIZATION WITH CYCLODEXTRINS” (Beren Therapeutics P.B.C., priority 2020, published 2023).

Experiments:
[1] = human subject, single-ascending i.v. doses 500-1,000 mg/kg every 4 weeks; after treatment vs pre-dose; FIG. 1A
Protocol: A human subject was treated with 2-hydroxypropyl-beta-cyclodextrin with single-ascending doses administered intravenously every 4 weeks according to Table 1 below. […] For each dose, whole blood was collected pre-dose, post-dose (line flush), 1 hour post-dose, and 24 hours post-dose. Plasma was separated from the whole blood and subjected to a cholesterol crystal dissolution capacity (CCDC) assay using techniques similar to those described in the literature. The CCDC assay measures the ability of a sample to dissolve cholesterol crystals.

[2] = pre-dose human plasma incubated ex vivo with the substance; FIG. 1B
Protocol: For each dose, whole blood was collected pre-dose, post-dose (line flush), 1 hour post-dose, and 24 hours post-dose. Plasma was separated from the whole blood and subjected to a cholesterol crystal dissolution capacity (CCDC) assay using techniques similar to those described in the literature. The CCDC assay measures the ability of a sample to dissolve cholesterol crystals.
Blood plasma pre-dose was also incubated ex vivo with 2-hydroxypropyl-beta-cyclodextrin and the ability of the plasma to dissolve cholesterol crystals was measured.

[3] = human subject, i.v. 500-1,000 mg/kg every 4 weeks, FIGS. 2A-2C
Protocol: (§1) A human subject was treated with 2-hydroxypropyl-beta-cyclodextrin with single-ascending doses administered intravenously every 4 weeks according to Table 1 below.
In this Example, a human subject was treated with 2-hydroxypropyl-beta-cyclodextrin according to Example 1, and plasma levels of 24S-hydroxycholesterol and 27-hydroxycholesterol were measured. […] 27-hydroxycholesterol is an endogenous LXR ligand leading to a downstream anti-inflammatory gene signature which may, in some embodiments, address the detrimental inflammatory response via NLRP3 inflammasome effects of cholesterol crystal embolization. The elevated 27-hydroxycholesterol is also a cellular marker of macrophage activation and increased activity for cholesterol crystal phagocytosis and clearance.

[4] = system: ABCA1; details: peripheral blood, human subject, i.v. 500-1,000 mg/kg every 4 weeks; FIGS. 3A-3D
Protocol: as §1
(§2) In this Example, a human subject was treated with 2-hydroxypropyl-beta-cyclodextrin according to Example 1, and mRNA levels of the LXR transcription factor-regulated genes, ABCA1 and ABCG1, were measured. […] ABCA1 and ABCG1 are important cholesterol transporters and are responsible for cholesterol efflux from cells, loading of HDL particles for reverse cholesterol transport (RCT), and excretion via the hepatic pathway, to potentially reduce the cholesterol and cholesterol crystal emboli released into the vasculature and stabilize ruptured atherosclerotic plaque.

[5] = system: ABCG1; details: peripheral blood, human subject, i.v. 500-1,000 mg/kg every 4 weeks; FIGS. 3A-3D
Protocol: as §1, §2

## 2-hydroxypropyl-beta-cyclodextrin
[1]
  capability of blood plasma to dissolve cholesterol crystals (CCDC): increased capability of blood plasma to dissolve cholesterol crystals
[2]
  capacity of plasma to dissolve cholesterol crystals (CCDC): increased capacity to dissolve cholesterol crystals
[3]
  plasma levels of 24S-hydroxycholesterol: increased
  plasma levels of 27-hydroxycholesterol: increased
[3]; plasma
  total cholesterol levels: remained stable
[4]
  mRNA levels of ABCA1: increased
[5]
  mRNA levels of ABCG1: increased
